{
  "source": "ChEMBL document CHEMBL5154690",
  "about": "“Discovery of a tricyclic farnesoid X receptor agonist HEC96719, a clinical candidate for treatment of non-alcoholic steatohepatitis” (Eur J Med Chem, 2022)",
  "key": {"Bile acid receptor": {"molecular_target": "T1, Bile acid receptor (Homo sapiens, UniProt Q96RI1)", "T1 sequence (Q96RI1 whole entry)": "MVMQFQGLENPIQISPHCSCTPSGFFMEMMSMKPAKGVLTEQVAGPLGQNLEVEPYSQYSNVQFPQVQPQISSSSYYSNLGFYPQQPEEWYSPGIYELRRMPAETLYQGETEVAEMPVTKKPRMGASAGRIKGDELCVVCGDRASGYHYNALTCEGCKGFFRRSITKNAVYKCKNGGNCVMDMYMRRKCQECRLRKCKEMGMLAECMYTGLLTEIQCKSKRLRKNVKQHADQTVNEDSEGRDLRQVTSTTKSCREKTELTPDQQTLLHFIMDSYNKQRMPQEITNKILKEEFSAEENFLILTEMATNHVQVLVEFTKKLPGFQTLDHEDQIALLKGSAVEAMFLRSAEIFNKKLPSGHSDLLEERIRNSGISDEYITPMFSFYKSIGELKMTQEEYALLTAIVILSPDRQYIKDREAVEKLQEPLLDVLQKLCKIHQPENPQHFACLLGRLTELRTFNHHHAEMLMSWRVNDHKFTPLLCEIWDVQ", "test": "Agonist activity at FXR-LBD (unknown origin) assessed as induction of coactivator SRC-1 peptide recruitment measured by TR-FRET assay"}, "[1]": {"test": "Half-life in male Sprague-Dawley rat at 5 mg/kg, po measured by LC-MS/MS analysis", "assay_type": "ADME, organism-based", "conditions": "in vivo"}, "[2]": {"test": "Oral bioavailability in male Sprague-Dawley rat at 5 mg/kg measured by LC-MS/MS analysis", "assay_type": "ADME, organism-based", "conditions": "in vivo"}, "Estrogen receptor beta": {"molecular_target": "Estrogen receptor beta (Homo sapiens, UniProt Q92731)", "sequence (Q92731 whole entry)": "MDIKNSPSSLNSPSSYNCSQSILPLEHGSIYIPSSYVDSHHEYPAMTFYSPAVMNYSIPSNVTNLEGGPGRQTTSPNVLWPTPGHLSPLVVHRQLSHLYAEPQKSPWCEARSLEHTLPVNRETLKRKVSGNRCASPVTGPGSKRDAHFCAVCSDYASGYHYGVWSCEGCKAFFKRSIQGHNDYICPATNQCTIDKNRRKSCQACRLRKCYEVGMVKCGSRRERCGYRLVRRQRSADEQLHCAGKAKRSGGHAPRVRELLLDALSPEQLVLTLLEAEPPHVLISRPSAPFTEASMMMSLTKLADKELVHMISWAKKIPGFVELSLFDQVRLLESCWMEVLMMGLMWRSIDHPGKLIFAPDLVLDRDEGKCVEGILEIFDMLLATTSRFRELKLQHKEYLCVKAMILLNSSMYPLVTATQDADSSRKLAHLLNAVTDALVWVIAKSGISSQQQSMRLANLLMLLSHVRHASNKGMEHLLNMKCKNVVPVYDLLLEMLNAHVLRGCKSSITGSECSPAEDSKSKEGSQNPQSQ", "test": "Agonist activity at estrogen receptor beta (unknown origin)"}, "[3]": {"molecular_target": "T2, Nuclear receptor subfamily 1 group I member 2 (Homo sapiens, UniProt O75469)", "T2 sequence (O75469 whole entry)": "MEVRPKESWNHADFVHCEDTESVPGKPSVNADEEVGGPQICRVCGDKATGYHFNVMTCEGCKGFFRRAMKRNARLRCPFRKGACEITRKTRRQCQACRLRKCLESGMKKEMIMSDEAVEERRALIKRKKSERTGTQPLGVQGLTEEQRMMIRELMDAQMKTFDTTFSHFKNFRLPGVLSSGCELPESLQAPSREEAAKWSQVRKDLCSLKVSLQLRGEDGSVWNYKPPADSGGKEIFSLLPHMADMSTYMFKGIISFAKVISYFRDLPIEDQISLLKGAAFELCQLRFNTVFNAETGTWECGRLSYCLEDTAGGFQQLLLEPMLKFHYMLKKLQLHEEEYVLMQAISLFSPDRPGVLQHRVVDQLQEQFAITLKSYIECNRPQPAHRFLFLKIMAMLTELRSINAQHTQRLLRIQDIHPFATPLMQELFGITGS", "test": "Agonist activity at PXR (unknown origin)"}, "[4]": {"molecular_target": "T3, Bile acid receptor (Rattus norvegicus) (UniProt Q62735)", "T3 sequence (whole entry)": "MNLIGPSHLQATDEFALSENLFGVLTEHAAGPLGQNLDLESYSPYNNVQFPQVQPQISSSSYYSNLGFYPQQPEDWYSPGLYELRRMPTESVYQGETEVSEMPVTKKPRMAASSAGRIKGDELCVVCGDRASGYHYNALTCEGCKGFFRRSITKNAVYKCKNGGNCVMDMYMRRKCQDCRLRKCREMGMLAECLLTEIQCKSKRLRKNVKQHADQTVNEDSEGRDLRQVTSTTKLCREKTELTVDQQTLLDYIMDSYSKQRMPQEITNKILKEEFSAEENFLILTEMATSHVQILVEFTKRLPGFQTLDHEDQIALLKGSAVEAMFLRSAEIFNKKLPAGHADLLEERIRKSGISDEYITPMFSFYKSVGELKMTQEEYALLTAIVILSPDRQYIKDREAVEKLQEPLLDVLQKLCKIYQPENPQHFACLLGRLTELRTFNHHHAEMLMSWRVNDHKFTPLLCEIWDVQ", "test": "In vivo activation of FXR in male Sprague-Dawley rat assessed as fold increase in ileum FGF15 level at 5 mg/kg, po administered as single dose measured at 1 hr by RT-qPCR assay", "assay_type": "functional, organism-based"}, "Mus musculus [5]": {"system": "Mus musculus", "test": "Anti-NASH activity against high fat (HF) diet-induced nonalcoholic steatohepatitis in leptin-deficient ob/ob mouse model assessed as reduction in serum ALT level at 0.1 to 1 mg/kg, po administered once daily from week 5 to 10", "assay_type": "functional, organism-based", "conditions": "dose 0.1-1 mg/kg"}, "Mus musculus [6]": {"system": "Mus musculus", "test": "Anti-NASH activity against high fat (HF) diet-induced nonalcoholic steatohepatitis in leptin-deficient ob/ob mouse model assessed as reduction in NASH activity score (NAS) at 0.3 to 1 mg/kg, po administered once daily from week 5 to 10", "assay_type": "functional, organism-based", "conditions": "dose 0.3-1 mg/kg"}, "Mus musculus [7]": {"system": "Mus musculus", "test": "Anti-NASH activity in western style diet-induced nonalcoholic steatohepatitis model of male C57BL/6 mouse assessed as reduction in serum ALT level at 1 mg/kg, po administered once daily from week 32 to 44", "assay_type": "functional, organism-based"}, "Mus musculus [8]": {"system": "Mus musculus", "test": "Antifibrotic activity in C57BL/6 mouse model of CCI4-induced liver fibrosis assessed as decrease in serum ALT level at 0.1 to 1 mg/kg, po administered once daily for 4 weeks", "assay_type": "functional, organism-based", "conditions": "dose 0.1-1 mg/kg"}, "Mus musculus [9]": {"system": "Mus musculus", "test": "Antifibrotic activity in C57BL/6 mouse model of CCI4-induced liver fibrosis assessed as decrease in serum TBIL level at 0.1 to 1 mg/kg, po administered once daily for 4 weeks", "assay_type": "functional, organism-based", "conditions": "dose 0.1-1 mg/kg"}, "Mus musculus [10]": {"system": "Mus musculus", "test": "Antifibrotic activity in C57BL/6 mouse model of CCI4-induced liver fibrosis assessed as reduction in fibrosis area at 1 mg/kg, po administered once daily for 4 weeks", "assay_type": "functional, organism-based"}, "[11]": {"test": "Half-life in male C57BL/6 mouse at 2 mg/kg, iv measured by LC-MS/MS analysis", "assay_type": "ADME, organism-based", "conditions": "in vivo"}, "[12]": {"test": "Clearance in male Beagle dog at 1 mg/kg, iv measured by LC-MS/MS analysis", "assay_type": "ADME, organism-based, Canis lupus familiaris", "conditions": "in vivo"}, "[13]": {"test": "Drug metabolism in plasma of Sprague-Dawley rat assessed as production of toxic metabolites at 4.5 mg/kg, po administered as C14-lableled compound with single dose", "assay_type": "ADME, organism-based", "conditions": "in vivo"}, "[14]": {"test": "Drug metabolism in urine of Sprague-Dawley rat assessed as production of toxic metabolites at 4.5 mg/kg, po administered as C14-lableled compound with single dose", "assay_type": "ADME, organism-based", "conditions": "in vivo"}, "[15]": {"test": "Drug recovery in heart of male Sprague-Dawley rat at 4.5 mg/kg, po administered as C14-lableled compound and assessed as radioactivity and measured at 1 hr", "assay_type": "ADME, organism-based", "conditions": "in vivo"}, "[16]": {"test": "Drug recovery in lung of male Sprague-Dawley rat at 4.5 mg/kg, po administered as C14-lableled compound and assessed as radioactivity and measured at 1 hr", "assay_type": "ADME, organism-based", "conditions": "in vivo"}, "[17]": {"test": "Drug recovery in spleen of male Sprague-Dawley rat at 4.5 mg/kg, po administered as C14-lableled compound and assessed as radioactivity and measured at 6 hrs", "assay_type": "ADME, organism-based", "conditions": "in vivo, BLD = below limit of detection"}, "[18]": {"test": "Drug recovery in liver of male Sprague-Dawley rat at 4.5 mg/kg, po administered as C14-lableled compound and assessed as radioactivity and measured at 24 hrs", "assay_type": "ADME, organism-based", "conditions": "in vivo"}, "[19]": {"test": "Drug recovery in ileum of male Sprague-Dawley rat at 4.5 mg/kg, po administered as C14-lableled compound and assessed as radioactivity and measured at 24 hrs", "assay_type": "ADME, organism-based", "conditions": "in vivo"}},
  "note": "Active and inactive are the calls of the source. No cut-off for these calls is given here.",
  "data": [
    {"compound": "O=C(O)c1ccc2c(c1)Oc1ccc(OCc3c(-c4c(Cl)cccc4Cl)noc3C3CC3)nc1C1(CC1)C2", "values": [
      {"measurement": "EC50", "setting": "Bile acid receptor", "value": 1.37, "unit": "nM"},
      {"measurement": "half-life", "setting": "[1]", "value": 96, "unit": "min"},
      {"measurement": "bioavailability", "setting": "[2]", "value": 50.8, "unit": "%"},
      {"measurement": "EC50", "setting": "Estrogen receptor beta", "value": "> 10", "unit": "µM"},
      {"measurement": "EC50", "setting": "[3]", "value": "> 10", "unit": "µM"},
      {"measurement": "fold change (FC)", "setting": "[4]", "value": 24},
      {"measurement": "Activity", "setting": "Mus musculus [5]", "value": "Active"},
      {"measurement": "Activity", "setting": "Mus musculus [6]", "value": "Active"},
      {"measurement": "Activity", "setting": "Mus musculus [7]", "value": "Active"},
      {"measurement": "Activity", "setting": "Mus musculus [8]", "value": "Active"},
      {"measurement": "Activity", "setting": "Mus musculus [9]", "value": "Active"},
      {"measurement": "Activity", "setting": "Mus musculus [10]", "value": "Active"},
      {"measurement": "half-life", "setting": "[11]", "value": 28.2, "unit": "min"},
      {"measurement": "clearance", "setting": "[12]", "value": 18.4, "unit": "mL/min/kg"},
      {"measurement": "Drug metabolism", "setting": "[13]", "value": "Metabolite_Notdetected"},
      {"measurement": "Drug metabolism", "setting": "[14]", "value": "Metabolite_Notdetected"},
      {"measurement": "Drug recovery", "setting": "[15]", "value": 341, "unit": "ngequiv/g"},
      {"measurement": "Drug recovery", "setting": "[16]", "value": 814, "unit": "ngequiv/g"},
      {"measurement": "Drug recovery", "setting": "[17]", "value": "Bld"},
      {"measurement": "Drug recovery", "setting": "[18]", "value": 304, "unit": "ngequiv/g"},
      {"measurement": "Drug recovery", "setting": "[19]", "value": 1542, "unit": "ngequiv/g"}
    ]}
  ]
}
